This passage reports IC50 results from BindingDB's records for doi:10.1021/acsmedchemlett.6b00306 (The University of Queensland, 2016).

Molecules are shown by their SMILES. pIC50: −log10 of the molar value.

The experiment addresses T1, Proteinase-activated receptor 2 (Homo sapiens, UniProt P55085).
T1 sequence (P55085 whole entry): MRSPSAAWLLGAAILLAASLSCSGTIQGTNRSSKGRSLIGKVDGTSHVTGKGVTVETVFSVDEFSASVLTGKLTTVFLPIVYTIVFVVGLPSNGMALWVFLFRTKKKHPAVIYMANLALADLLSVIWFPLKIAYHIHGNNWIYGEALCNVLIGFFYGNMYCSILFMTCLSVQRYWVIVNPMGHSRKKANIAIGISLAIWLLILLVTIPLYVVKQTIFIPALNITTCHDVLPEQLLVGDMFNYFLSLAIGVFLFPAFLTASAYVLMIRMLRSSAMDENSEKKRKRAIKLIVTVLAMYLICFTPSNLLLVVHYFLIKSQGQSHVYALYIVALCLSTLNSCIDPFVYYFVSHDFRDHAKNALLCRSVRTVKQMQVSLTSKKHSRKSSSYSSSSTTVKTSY
Description: Antagonist activity at PAR2 in human HT-29 cells assessed as inhibition of 2f-LIGRLO-NH2-stimulated intracellular calcium release preincubated for 30 mins followed by 2f-LIGRLO-NH2 stimulation measured for 60 sec by Fluo-3 AM dye based FLIPR assay. Background: A change in cytosolic calcium serves as a functional read-out for many receptors and channels.

As to `CC[C@H](C)[C@H](NC(=O)[C@H](CC1CCCCC1)NC(=O)c1ccno1)C(=O)N1CCCC[C@H]1C(=O)NC(C)(C)C`, the pIC50 was 5.10.

Usually pIC50 stands for the negative decadic logarithm of the IC50, by convention in mol/L.
